The values below come from publication PMC5889476 (Biochimie Open, 2015).

Series [1] concerns the target T1, rFKBP22 (E. coli FKBP22) (Escherichia coli, UniProt P0A9L3, V72P).
T1 sequence (P0A9L3 1-206 V72P): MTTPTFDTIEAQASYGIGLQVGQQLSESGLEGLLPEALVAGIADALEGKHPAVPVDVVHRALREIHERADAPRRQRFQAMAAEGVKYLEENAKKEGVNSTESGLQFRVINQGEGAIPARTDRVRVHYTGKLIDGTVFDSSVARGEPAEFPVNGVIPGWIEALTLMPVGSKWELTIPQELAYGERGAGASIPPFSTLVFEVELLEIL
Put plainly: tryptophan fluorescence quenching titration. It counts as binding.

The target of series [2] is T2, rFKBP22 (E. coli FKBP22) (Escherichia coli, UniProt P0A9L3, I65P).
T2 sequence (P0A9L3 1-206 I65P): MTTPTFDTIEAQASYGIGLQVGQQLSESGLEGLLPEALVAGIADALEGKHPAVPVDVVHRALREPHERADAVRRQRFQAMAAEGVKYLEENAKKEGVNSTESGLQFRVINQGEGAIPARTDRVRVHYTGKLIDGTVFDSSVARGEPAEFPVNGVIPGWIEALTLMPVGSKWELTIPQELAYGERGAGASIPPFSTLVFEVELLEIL
Put plainly: tryptophan fluorescence quenching titration. Type of series: binding.

For series [3], the target named is T3, rFKBP22 (E. coli FKBP22) (Escherichia coli, UniProt P0A9L3).
T3 sequence (P0A9L3 1-206): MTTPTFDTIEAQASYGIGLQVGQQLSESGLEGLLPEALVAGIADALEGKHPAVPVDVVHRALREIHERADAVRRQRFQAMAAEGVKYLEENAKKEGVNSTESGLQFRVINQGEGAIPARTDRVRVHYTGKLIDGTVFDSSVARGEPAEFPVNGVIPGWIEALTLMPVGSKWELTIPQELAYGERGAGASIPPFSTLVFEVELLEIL
The series is described as follows: tryptophan fluorescence quenching titration. Type of series: binding.

The target in series [4] is T4, rFKBP22 (E. coli FKBP22) (Escherichia coli, UniProt P0A9L3, A82P).
T4 sequence (P0A9L3 1-206 A82P): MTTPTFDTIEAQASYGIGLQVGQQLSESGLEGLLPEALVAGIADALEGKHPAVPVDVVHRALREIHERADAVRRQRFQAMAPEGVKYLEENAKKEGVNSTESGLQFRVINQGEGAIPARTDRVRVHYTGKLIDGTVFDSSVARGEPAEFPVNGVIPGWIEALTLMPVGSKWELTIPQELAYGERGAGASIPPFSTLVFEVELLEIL
The series is described as follows: tryptophan fluorescence quenching titration. Type of series: binding.

Series [5] deals with the molecule itself. The series is described as follows: cross-linking.

As to `CO[C@H]1C[C@@H]2CC[C@@H](C)[C@@](O)(O2)C(=O)C(=O)N2CCCC[C@H]2C(=O)O[C@H]([C@H](C)C[C@@H]2CC[C@@H](O)[C@H](OC)C2)CC(=O)[C@H](C)/C=C(\C)[C@@H](O)[C@@H](OC)C(=O)[C@H](C)C[C@H](C)/C=C/C=C/C=C/1C` [rapamycin], the Kd (in general, the free concentration of one partner at which half of the binding sites on the other are occupied at equilibrium, for simple one-to-one binding) in series [1] worked out at 5.51 ± 0.26 µM; in series [2], 5.06 ± 0.38 µM; in series [3] it was 5.43 ± 0.57 µM; in series [4], 5.41 ± 0.31 µM.

B1: V72P, a rFKBP22 variant with a Val to Pro substitution at position 72 in the helix α3 (enzyme, Escherichia coli, UniProt P0A9L3 1-206, looked up)
chain: MTTPTFDTIEAQASYGIGLQVGQQLSESGLEGLLPEALVAGIADALEGKHPAVPVDVVHRALREIHERADAPRRQRFQAMAAEGVKYLEENAKKEGVNSTESGLQFRVINQGEGAIPARTDRVRVHYTGKLIDGTVFDSSVARGEPAEFPVNGVIPGWIEALTLMPVGSKWELTIPQELAYGERGAGASIPPFSTLVFEVELLEIL
On to B1, for which, in series [5], the stoichiometry N (in general, a count of units in the complex or per binding partner) stood at 2.

B2: A82P, a rFKBP22 derivative harboring an Ala to Pro change at position 82 in the helix α3 (enzyme, Escherichia coli, UniProt P0A9L3 1-206, looked up)
chain: MTTPTFDTIEAQASYGIGLQVGQQLSESGLEGLLPEALVAGIADALEGKHPAVPVDVVHRALREIHERADAVRRQRFQAMAPEGVKYLEENAKKEGVNSTESGLQFRVINQGEGAIPARTDRVRVHYTGKLIDGTVFDSSVARGEPAEFPVNGVIPGWIEALTLMPVGSKWELTIPQELAYGERGAGASIPPFSTLVFEVELLEIL
For B2, the “stoichiometry N” value in series [5] was determined as 2.
